Test results reported in patent US7326689B2, “Pseudomycins useful against plant diseases” (Eli Lilly and Company, priority 2000, dated 2008).

Assays:
Test in all cases: Antifungal growth assay in potato dextrose broth, 24-well
Type in all cases: cell-based
[1] = tested on: Drechslera portulacae; conditions: 3x assays
Method: (§1) Fungi to be tested were propagated on potato dextrose agar (PDA) plates at room temperature. Stock solutions of pseudomycins and depsipeptide were suspended in dimethylsulfoxide (DMSO) (Sigma) at 5 mg/ml and stored at −20C. Serial dilutions of compounds were done the day of the experiment. All serial dilutions were made in DMSO. […] These are noted in the raw data section.
(§2) Assays were performed in 24-well cell culture clusters (Costar 3524), with 990 ul potato dextrose broth (PDB, Difco) and 10 ul of the compound to be tested in each well. Initial concentrations tested were 50-1.56 ug/ml (final concentration of pseudomycin). Actual concentrations of pseudomycins tested were 50, 25, 12.5, 6.25, 3.12 and 1.56 ug/ml. Each well was inoculated with the appropriate fungus. Unless noted, the fungal inoculum consisted of an ˜4 mm^2 piece of PDA with fungal mycelium. The exceptions were as follows. Ustilago maydis: this fungus grows much like a yeast on PDA, and cells were scraped from the PDA stock plate, resuspended in PDB and 10 ul inoculum added to each well. Monilinia sp.: this fungal mycelium grows as a very loose sheet on top of PDA and would not adhere to agar blocks. Fungal mycelium was ground with a metal rod in 500 ul PDB and 10 ul inoculum was added to each well. Mycosphaeella fijiensis, Septoria passerinii, Septoria triticii: these fungi all grow very slowly and the results were difficult to score if a small piece of agar with fungal mycelium on it was used as an inoculum. For these fungi, the mycelium was ground with a metal rod in 500 ul PDB and 10 ul inoculum was added to each well.
(§3) Wells were scored for fungal growth at two days and five days. Some slow growing fungi were scored at later days for growth because assessment was not possible at two or five days. Growth was scored by comparison to a control consisting of fungus inoculated into 990 ul potato dextrose broth and 10 ul of DMSO (Dimethylsulfoxide). An additional control consisting of fungal inoculum in PDB only was performed to ensure that the DMSO was not inhibitory to fungal growth.
(§4) For assays that were repeated, new stock solutions were made from a second shipment of pseudomycins. Note that pseudomycin B′ and depsipeptide stock solutions were remade from first shipment materials because these were not included in the second shipment. […] Actual concentrations of pseudomycins tested were 2, 1, 0.5, 0.25, 0.125 and 0.0625 ug/ml. A-PO4 and A-FB=pseudomycin A phosphate salt and free base respectively.
(§5) Table 2: Two day results—concentration indicated is lowest level of compound (ug /ml) that results is no growth. NI, no inhibition; p (partial), at least 50% inhibited; -, not determined. If number of assays was greater than one, number of assays performed on the fungus is noted in parentheses. For several slow-growing fungi, days elapsed before observation (if different than two) are noted.
(§6) Table 3: Five day results—concentration indicated is lowest level of compound (ug /ml) that results in no growth. NI, no inhibition; p (partial), at least 50% inhibited; -, not performed on the fungus is noted in parentheses. For several slow-growing fungi, days elapsed before observation (if different than five) are noted.

[2] = tested on: Geotrichim candidum; conditions: 3x assays
Method: as §1, §2, §3, §4, §5, §6

[3] = tested on: Monilinia sp.; conditions: 2x assays
Method: as §1, §2, §3, §4, §5, §6

[4] = tested on: Mycosphaeella fijiensis (8088/88); conditions: 3x assays
Method: as §1, §2, §3, §4, §5, §6

[5] = tested on: Mycosphaeella fijiensis (Sigatoka); conditions: 3x assays
Method: as §1, §2, §3, §4, §5, §6

[6] = tested on: Penicillium roqueforti; conditions: 3x assays
Method: as §1, §2, §3, §4, §5, §6

[7] = tested on: Rhizoctonia solani; conditions: 2x assays
Method: as §1, §2, §3, §4, §5, §6

[8] = tested on: Septoria passerinii; conditions: 3x assays
Method: as §1, §2, §3, §4, §5, §6

[9] = tested on: Septoria tritici; conditions: 3x assays
Method: as §1, §2, §3, §4, §5, §6

[10] = tested on: Ustilago maydis; conditions: 3x assays
Method: as §1, §2, §3, §4, §5, §6

[11] = tested on: Diplodia natalensis; design: key: NI, no inhibition; p (partial), at least 50% inhibited
Outline: (§7)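 Compounds diluted in DMSO were tested at final 50, 25, 12.5, 6.25, 3.12 and 1.56 ug/ml (repeat assays 2–0.0625 ug/ml) in potato dextrose broth with 1% DMSO, inoculated with PDA mycelium plugs or ground mycelium (M. fijiensis). Growth was scored at two and five days (later for slow growers) against DMSO control; value is lowest concentration giving no growth.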

[12] = tested on: Fusarium oxysporum cubense; design: key: NI, no inhibition; p (partial), at least 50% inhibited
Outline: as §7

[13] = tested on: Phytophthora cactorum; design: key: NI, no inhibition; p (partial), at least 50% inhibited
Outline: as §7

[14] = tested on: Phytophthora parasitica; design: key: NI, no inhibition; p (partial), at least 50% inhibited
Outline: as §7

[15] = tested on: Sclerotinia sclerotiorum; design: key: NI, no inhibition; p (partial), at least 50% inhibited; conditions: 2x assays
Outline: as §7

[16] = Table 2 (two day results), observed at 7 day
[17] = Table 3 (five day results), observed at 21 days

Row | Substance | lowest level of compound that results in no growth ([1]; two day results) [µg/mL] | lowest level of compound that results in no growth ([2]; five day results) [µg/mL] | lowest level of compound that results in no growth ([2]; two day results) [µg/mL] | lowest level of compound that results in no growth ([3]; five day results) [µg/mL] | lowest level of compound that results in no growth ([3]; two day results) [µg/mL] | lowest level of compound that results in no growth [4, 16] [µg/mL] | lowest level of compound that results in no growth [4, 17] [µg/mL] | lowest level of compound that results in no growth [5, 16] [µg/mL] | lowest level of compound that results in no growth [5, 17] [µg/mL] | lowest level of compound that results in no growth ([6]; five day results) [µg/mL] | lowest level of compound that results in no growth ([6]; two day results) [µg/mL] | lowest level of compound that results in no growth ([7]; five day results) [µg/mL] | lowest level of compound that results in no growth ([7]; two day results) [µg/mL] | lowest level of compound that results in no growth ([8]; five day results) [µg/mL] | lowest level of compound that results in no growth ([8]; two day results) [µg/mL] | lowest level of compound that results in no growth ([9]; five day results) [µg/mL] | lowest level of compound that results in no growth ([9]; two day results) [µg/mL] | lowest level of compound that results in no growth ([10]; five day results) [µg/mL] | lowest level of compound that results in no growth ([10]; two day results) [µg/mL] | lowest level of compound that results in no growth ([11]; five day results) | also measured
1 | pseudomycin A-FB | 0.25 | 6.25 | 3.12 | 12.5 | 6.25 | 0.25 | 0.25 | 0.5 | 1 | 3.12 | 1 | 50 | 6.25 | 0.06 | 0.06 | 0.25 | 0.25 | 1 | 1 | NI | lowest level of compound that results in no growth ([1]; Table 3 (five day results), observed at 9 day): 0.25 µg/mL; lowest level of compound that results in no growth ([8]; five day results, listed as pseudomycin A (free base)): 0.0625 µg/mL; lowest level of compound that results in no growth ([11]; two day results): NI; lowest level of compound that results in no growth ([12]; five day results): NI; lowest level of compound that results in no growth ([12]; two day results): NI; lowest level of compound that results in no growth ([13]; five day results): NI; lowest level of compound that results in no growth ([13]; two day results): NI; lowest level of compound that results in no growth ([14]; five day results): NI; lowest level of compound that results in no growth ([14]; two day results): NI; lowest level of compound that results in no growth ([15]; five day results): NI; lowest level of compound that results in no growth ([15]; two day results): NI
2 | pseudomycin A-PO4 | 0.06 | 6.25 | 12.5 | 12.5 | 12.5 | 0.12 | 0.25 | 1 | 1 | 3.12 | 0.5 | 12.5 | 6.25 | 0.12 | 0.125 | 0.25 | 0.25 | 1 | 0.5 | NI | lowest level of compound that results in no growth ([1]; Table 3 (five day results), observed at 9 day, listed as A-PO4): 0.06 µg/mL; lowest level of compound that results in no growth ([1]; Table 3 (five day results), observed at 9 day, listed as pseudomycin A (PO4)): 0.0625 µg/mL; lowest level of compound that results in no growth ([11]; two day results): NI; lowest level of compound that results in no growth ([12]; five day results): NI; lowest level of compound that results in no growth ([12]; two day results): NI; lowest level of compound that results in no growth ([13]; five day results): NI; lowest level of compound that results in no growth ([13]; two day results): NI; lowest level of compound that results in no growth ([14]; five day results): NI; lowest level of compound that results in no growth ([14]; two day results): NI; lowest level of compound that results in no growth ([15]; five day results): NI; lowest level of compound that results in no growth ([15]; two day results): NI
